What was measured:
hERG (KCNH2) = hERG (KCNH2) (Homo sapiens, UniProt Q12809); experiment: Inhibition of human ERG at 10 uM by IonWorks assay
Histamine H3 receptor [1] = biological target: Histamine H3 receptor (Homo sapiens, UniProt Q9Y5N1); experiment: Displacement of [3H]-(R)-alpha-methylhistamine from human H3 receptor expressed in HEK293T cells after 120 mins by scintillation counting; type: cell-based, HEK-293T
Histamine H3 receptor [2] = biological target: Histamine H3 receptor (Rattus norvegicus, UniProt Q9QYN8); experiment: Displacement of [3H]-(R)-alpha-methylhistamine from rat H3 receptor expressed in HEK293T cells after 120 mins by scintillation counting; type: cell-based, HEK-293T
Sequence of Histamine H3 receptor (Rattus norvegicus, UniProt Q9QYN8) (Q9QYN8 whole entry): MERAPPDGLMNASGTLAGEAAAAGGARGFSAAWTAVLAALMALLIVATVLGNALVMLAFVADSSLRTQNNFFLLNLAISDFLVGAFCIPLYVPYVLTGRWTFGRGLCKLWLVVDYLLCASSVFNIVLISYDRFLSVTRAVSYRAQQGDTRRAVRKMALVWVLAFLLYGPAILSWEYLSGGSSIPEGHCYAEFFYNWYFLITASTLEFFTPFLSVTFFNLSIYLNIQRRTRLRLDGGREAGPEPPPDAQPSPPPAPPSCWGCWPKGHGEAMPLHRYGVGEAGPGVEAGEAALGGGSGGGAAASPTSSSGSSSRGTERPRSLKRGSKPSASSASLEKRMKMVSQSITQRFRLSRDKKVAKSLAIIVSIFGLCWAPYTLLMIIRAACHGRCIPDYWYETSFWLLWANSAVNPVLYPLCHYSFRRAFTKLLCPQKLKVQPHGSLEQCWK

[3] = biological target: Voltage-gated inwardly rectifying potassium channel KCNH2 (Homo sapiens, UniProt Q12809); experiment: Inhibition of human ERG by IonWorks assay
Sequence of Voltage-gated inwardly rectifying potassium channel KCNH2 (Q12809 whole entry): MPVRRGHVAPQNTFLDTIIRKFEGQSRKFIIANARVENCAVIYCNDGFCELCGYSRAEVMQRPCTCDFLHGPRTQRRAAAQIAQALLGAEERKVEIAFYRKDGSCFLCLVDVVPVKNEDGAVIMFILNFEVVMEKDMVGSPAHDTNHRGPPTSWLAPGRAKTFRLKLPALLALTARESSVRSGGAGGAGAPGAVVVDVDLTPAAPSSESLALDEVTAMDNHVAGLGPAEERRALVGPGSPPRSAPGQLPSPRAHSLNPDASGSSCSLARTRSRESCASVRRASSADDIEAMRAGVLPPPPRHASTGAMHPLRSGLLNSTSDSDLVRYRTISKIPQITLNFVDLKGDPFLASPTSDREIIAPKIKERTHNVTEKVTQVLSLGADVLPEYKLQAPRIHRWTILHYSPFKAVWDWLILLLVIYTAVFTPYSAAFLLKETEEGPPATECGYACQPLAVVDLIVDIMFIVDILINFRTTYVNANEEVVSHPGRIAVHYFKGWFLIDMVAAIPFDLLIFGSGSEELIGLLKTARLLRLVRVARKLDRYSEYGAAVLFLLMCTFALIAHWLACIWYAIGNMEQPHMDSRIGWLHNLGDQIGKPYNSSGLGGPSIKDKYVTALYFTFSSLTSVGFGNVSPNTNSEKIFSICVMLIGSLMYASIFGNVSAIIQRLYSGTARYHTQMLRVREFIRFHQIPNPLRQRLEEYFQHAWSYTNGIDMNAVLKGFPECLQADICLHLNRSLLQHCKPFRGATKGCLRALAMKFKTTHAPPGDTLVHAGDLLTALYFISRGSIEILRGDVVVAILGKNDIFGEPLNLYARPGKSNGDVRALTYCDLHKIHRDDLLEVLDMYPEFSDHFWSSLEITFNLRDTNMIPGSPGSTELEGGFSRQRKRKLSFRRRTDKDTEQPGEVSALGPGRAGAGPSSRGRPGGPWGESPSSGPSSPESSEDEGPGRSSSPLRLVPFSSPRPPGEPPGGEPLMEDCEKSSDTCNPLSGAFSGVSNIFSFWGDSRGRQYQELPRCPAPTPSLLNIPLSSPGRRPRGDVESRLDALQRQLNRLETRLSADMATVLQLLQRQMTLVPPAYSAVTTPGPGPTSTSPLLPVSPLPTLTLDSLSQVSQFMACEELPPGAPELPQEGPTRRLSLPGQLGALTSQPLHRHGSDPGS

Histamine H2 receptor = Histamine H2 receptor (Homo sapiens, UniProt P25021); experiment: Binding affinity to H2 receptor
Sequence of Histamine H2 receptor (P25021 whole entry): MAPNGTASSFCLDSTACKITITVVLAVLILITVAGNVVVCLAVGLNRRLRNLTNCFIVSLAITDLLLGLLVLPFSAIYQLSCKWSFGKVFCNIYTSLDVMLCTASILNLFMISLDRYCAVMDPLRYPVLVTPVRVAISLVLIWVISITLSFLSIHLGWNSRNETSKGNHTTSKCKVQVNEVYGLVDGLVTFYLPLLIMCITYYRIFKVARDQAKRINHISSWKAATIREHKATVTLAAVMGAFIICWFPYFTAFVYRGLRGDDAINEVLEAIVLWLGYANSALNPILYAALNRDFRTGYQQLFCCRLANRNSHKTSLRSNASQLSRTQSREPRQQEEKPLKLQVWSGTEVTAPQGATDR

[4] = biological target: 5-hydroxytryptamine receptor 2B (Homo sapiens, UniProt P41595); experiment: Binding affinity to 5-HT2B receptor
Sequence of 5-hydroxytryptamine receptor 2B (P41595 whole entry): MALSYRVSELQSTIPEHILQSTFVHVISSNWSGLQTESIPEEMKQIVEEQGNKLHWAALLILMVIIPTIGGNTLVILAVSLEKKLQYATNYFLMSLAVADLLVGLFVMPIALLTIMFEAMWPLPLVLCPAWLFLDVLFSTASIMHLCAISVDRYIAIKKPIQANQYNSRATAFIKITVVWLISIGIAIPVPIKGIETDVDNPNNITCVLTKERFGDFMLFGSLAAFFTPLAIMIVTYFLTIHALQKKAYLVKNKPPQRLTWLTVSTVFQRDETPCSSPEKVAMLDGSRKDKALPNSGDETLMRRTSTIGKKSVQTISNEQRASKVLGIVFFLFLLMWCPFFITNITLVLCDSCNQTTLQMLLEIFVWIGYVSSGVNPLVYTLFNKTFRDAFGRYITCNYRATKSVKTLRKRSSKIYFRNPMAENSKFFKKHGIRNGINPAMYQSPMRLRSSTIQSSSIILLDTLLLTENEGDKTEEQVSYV

D(2) dopamine receptor = D(2) dopamine receptor (Homo sapiens, UniProt P14416); experiment: Binding affinity to D2 receptor
Sequence of D(2) dopamine receptor (P14416 whole entry): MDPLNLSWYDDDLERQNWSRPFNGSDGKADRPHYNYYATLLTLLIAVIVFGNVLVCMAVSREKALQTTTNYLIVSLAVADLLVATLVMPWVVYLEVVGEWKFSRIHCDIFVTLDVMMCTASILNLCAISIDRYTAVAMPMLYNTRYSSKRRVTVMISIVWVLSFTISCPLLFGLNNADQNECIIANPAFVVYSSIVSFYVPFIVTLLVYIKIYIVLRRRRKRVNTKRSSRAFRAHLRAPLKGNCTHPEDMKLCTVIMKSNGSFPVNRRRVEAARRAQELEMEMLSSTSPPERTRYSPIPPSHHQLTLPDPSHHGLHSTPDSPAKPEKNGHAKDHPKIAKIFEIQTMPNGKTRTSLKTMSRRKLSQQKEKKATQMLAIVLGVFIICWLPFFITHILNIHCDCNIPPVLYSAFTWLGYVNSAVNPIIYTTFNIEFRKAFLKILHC

[5] = biological target: T1, Alpha-2A adrenergic receptor (Homo sapiens, UniProt P08913); experiment: Binding affinity to alpha-2A receptor
T1 sequence (P08913 whole entry): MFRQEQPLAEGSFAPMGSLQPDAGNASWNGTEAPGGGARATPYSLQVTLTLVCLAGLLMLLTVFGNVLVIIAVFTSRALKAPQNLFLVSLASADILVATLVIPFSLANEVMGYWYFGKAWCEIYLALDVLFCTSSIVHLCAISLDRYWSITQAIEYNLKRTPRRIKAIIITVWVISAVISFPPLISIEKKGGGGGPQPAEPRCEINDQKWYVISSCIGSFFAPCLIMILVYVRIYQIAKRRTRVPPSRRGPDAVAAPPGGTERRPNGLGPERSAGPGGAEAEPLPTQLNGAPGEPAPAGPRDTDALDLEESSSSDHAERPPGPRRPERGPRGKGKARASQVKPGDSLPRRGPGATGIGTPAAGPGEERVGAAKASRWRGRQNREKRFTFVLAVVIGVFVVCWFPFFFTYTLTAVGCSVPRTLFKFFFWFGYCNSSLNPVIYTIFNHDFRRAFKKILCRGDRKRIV

[6] = biological target: 5-hydroxytryptamine receptor 6 (Homo sapiens, UniProt P50406); experiment: Binding affinity to 5-HT6 receptor
[7] = biological target: T2, 5-hydroxytryptamine receptor 1A (Homo sapiens, UniProt P08908); experiment: Binding affinity to 5-HT1A receptor
T2 sequence (P08908 whole entry): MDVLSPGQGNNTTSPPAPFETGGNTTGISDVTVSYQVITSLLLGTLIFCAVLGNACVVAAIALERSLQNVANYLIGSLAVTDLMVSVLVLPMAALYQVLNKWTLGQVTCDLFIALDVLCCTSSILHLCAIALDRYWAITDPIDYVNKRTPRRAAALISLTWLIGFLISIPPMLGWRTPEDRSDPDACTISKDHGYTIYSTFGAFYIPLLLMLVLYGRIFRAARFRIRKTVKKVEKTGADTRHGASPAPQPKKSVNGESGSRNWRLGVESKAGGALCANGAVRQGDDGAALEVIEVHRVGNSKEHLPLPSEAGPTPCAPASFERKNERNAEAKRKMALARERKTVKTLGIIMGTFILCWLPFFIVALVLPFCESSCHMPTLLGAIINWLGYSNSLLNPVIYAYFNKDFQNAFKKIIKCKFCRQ

Histamine H1 receptor = Histamine H1 receptor (Homo sapiens, UniProt P35367); experiment: Binding affinity to H1 receptor
Sequence of Histamine H1 receptor (P35367 whole entry): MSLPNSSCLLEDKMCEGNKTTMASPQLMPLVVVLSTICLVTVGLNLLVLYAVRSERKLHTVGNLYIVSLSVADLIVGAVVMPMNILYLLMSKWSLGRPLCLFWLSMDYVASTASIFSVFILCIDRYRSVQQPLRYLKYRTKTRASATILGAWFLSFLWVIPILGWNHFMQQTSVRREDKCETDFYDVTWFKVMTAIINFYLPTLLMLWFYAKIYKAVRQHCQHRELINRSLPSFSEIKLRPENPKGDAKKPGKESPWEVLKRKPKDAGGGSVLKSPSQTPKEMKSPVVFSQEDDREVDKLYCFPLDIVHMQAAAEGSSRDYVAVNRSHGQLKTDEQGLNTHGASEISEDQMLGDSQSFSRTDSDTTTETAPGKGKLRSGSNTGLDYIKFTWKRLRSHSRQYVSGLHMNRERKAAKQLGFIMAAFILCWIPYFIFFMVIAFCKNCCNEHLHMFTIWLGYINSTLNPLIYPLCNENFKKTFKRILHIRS

[8] = biological target: Sodium-dependent dopamine transporter (Homo sapiens, UniProt Q01959); experiment: Binding affinity to DAT
[9] = biological target: Sodium-dependent serotonin transporter (Homo sapiens, UniProt P31645); experiment: Binding affinity to 5-HT transporter

Sequence of hERG (KCNH2) (Q12809 whole entry): as the sequence (Q12809 whole entry) above
Sequence of Histamine H3 receptor (Homo sapiens, UniProt Q9Y5N1) (Q9Y5N1 whole entry): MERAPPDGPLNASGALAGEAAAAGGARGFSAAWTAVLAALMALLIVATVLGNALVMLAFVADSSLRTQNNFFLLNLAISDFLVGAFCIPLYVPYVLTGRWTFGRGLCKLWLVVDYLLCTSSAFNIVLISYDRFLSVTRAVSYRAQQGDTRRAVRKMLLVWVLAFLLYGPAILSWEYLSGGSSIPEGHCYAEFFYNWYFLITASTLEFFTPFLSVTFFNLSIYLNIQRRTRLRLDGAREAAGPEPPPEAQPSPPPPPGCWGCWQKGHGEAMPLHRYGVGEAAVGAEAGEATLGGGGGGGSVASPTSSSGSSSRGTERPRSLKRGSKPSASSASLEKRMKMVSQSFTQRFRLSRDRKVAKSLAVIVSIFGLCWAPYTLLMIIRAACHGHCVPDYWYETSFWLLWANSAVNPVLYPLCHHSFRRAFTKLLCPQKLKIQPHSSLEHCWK

Ki (Histamine H3 receptor [1]) [nM]	Ki (Histamine H3 receptor [2]) [nM]	Compound	further results
7.8	–	O=C1c2ccc(-c3ccncc3)cc2CCN1CCN1CCCC1	inhibition at 10 µM (hERG (KCNH2)): 93%
14.1	174	O=C1c2ccc(-c3ccccc3F)cc2CCN1CCN1CCCC1	–
2.7	–	O=C(NC1CC1)c1ccc(-c2ccc3c(c2)CCN(CCN2CCCC2)C3=O)cc1	IC50 [3]: 11000 nM
2.4	–	C[C@@H]1CCCN1CCN1CCc2ccc(-c3ccc(C#N)cc3)cc2C1=O	inhibition at 10 µM (hERG (KCNH2)): 98%
6.9	270	N#Cc1ccc(-c2ccc3c(c2)CCN(CCCN2CCCC2)C3=O)cc1	–
3.9	25	N#Cc1ccc(-c2ccc3c(c2)CCN(CCN2CCCC2)C3=O)cc1	–
11	86	O=C1c2ccc(-c3ccc(F)cc3)cc2CCN1CCN1CCCC1	–
14.9	178	O=C1c2ccc(-c3ccc(OC(F)(F)F)cc3)cc2CCN1CCN1CCCC1	–
11.6	164	O=C1c2ccc(-c3cccc(F)c3)cc2CCN1CCN1CCCC1	–
3.1	–	CN(C)C(=O)c1ccc(-c2ccc3c(c2)CCN(CCN2CCCC2)C3=O)c(F)c1	IC50 [3]: 32500 nM
1.6	–	O=C(c1ccc(-c2ccc3c(c2)CCN(CCN2CCCC2)C3=O)cc1Cl)N1CCCC1	IC50 [3]: 9300 nM
6	–	NC(=O)c1ccc(-c2ccc3c(c2)CCN(CCN2CCCC2)C3=O)cc1	inhibition at 10 µM (hERG (KCNH2)): 14%
23.8	–	C[C@@H]1CCCN1CCN1Cc2cc(-c3ccc(C#N)cc3)ccc2C1=O	inhibition at 10 µM (hERG (KCNH2)): 98%
9.3	101	O=C1c2ccc(-c3ccc(C(F)(F)F)cc3)cc2CCN1CCN1CCCC1	–
3.4	73	N#Cc1cccc(-c2ccc3c(c2)CCN(CCN2CCCC2)C3=O)c1	–
0.3	–	C[C@@H]1CCCN1CCN1CCc2cc(Oc3ccc(C#N)nc3)ccc2C1=O	inhibition at 10 µM (hERG (KCNH2)): 99%
–	49	C[C@H]1CCCN1CCN1CCc2cc(-c3ccc(C#N)cc3)ccc2C1=O	–
11.4	145	O=C1c2ccc(-c3ccccc3)cc2CCN1CCN1CCCC1	–
1.2	23	C[C@@H]1CCCN1CCN1CCc2cc(-c3ccc(F)cc3)ccc2C1=O	IC50 [3]: 300 nM
1.3	–	CNC(=O)c1ccc(-c2ccc3c(c2)CCN(CCN2CCCC2)C3=O)cc1	–
1.3	–	O=C(c1ccc(-c2ccc3c(c2)CCN(CCN2CCCC2)C3=O)cc1F)N1CCCC1	IC50 [3]: 8800 nM
1.9	–	O=C(NC1CCCC1)c1ccc(-c2ccc3c(c2)CCN(CCN2CCCC2)C3=O)cc1	Ki (Histamine H2 receptor): > 10000 nM; Ki [4]: > 10000 nM; Ki (D(2) dopamine receptor): > 10000 nM; IC50 [3]: 8200 nM; Ki [5]: > 3000 nM; Ki [6]: > 10000 nM; Ki [7]: 8720 nM; Ki (Histamine H1 receptor): 9620 nM; Ki [8]: > 10000 nM; Ki [9]: 170 nM
6	–	O=C(c1ccc(-c2ccc3c(c2)CCN(CCN2CCCC2)C3=O)cc1)C1CC1	inhibition at 10 µM (hERG (KCNH2)): 65%
7.8	–	O=C1c2ccc(-c3ccc(F)cc3)cc2CCN1CCN1CCCCC1	–

Reference: ChEMBL document CHEMBL2029265, “2-(Pyrrolidin-1-yl)ethyl-3,4-dihydroisoquinolin-1(2H)-one derivatives as potent and selective histamine-3 receptor antagonists” (J Med Chem, 2012)
